Reference: US6486127B1, “Compositions comprising D-chiro inositol and lipid lowering compounds and methods of treatment thereof” (Insmed, Incorporated, priority 2001, dated 2002)
Entries after “also recorded” stand apart in the source; their conditions may differ.

What was measured:
[1] = Same clinical trial: fasting serum lipids (cholesterol, LDL, Apo-B, FFA); type: in vivo, human
Procedure: Changes in levels of triglycerides, total cholesterol, high-density lipoproteins (HDL), low-density lipoproteins (LDL), very-low-density lipoproteins (VLDL), apolipoprotein B (Apo-B), and free fatty acids (FFA).
(§1) This multicenter, double-blind, parallel-group, placebo-controlled, randomized, fixed-dose clinical study was designed to evaluate 1200 mg/day D-chiro-inositol versus placebo in 270 obese patients with type 2 diabetes mellitus who had been receiving sulfonylureas for at least 3 months without reaching their target or with suboptimal response.
(§2) The study involved 5 scheduled visits. The first visit was the screening visit, followed by a baseline visit up to 2 weeks later. Patients were randomized at the baseline visit, half to 1200 mg/day D-chiro-inositol and half to placebo, and subsequently began 13 weeks of treatment with blinded study medication. There were 3 visits for safety and efficacy assessments, at 4, 8, and 13 weeks after beginning treatment. The 13-week visit was the final visit. Patients arrived at the investigational site in a fasted state for all visits. Assessments were to be done at the same time of day at each visit by the same responsible personnel. Medication was taken once a day at the same time of morning, except on visit days, on which the dose was delayed until just after fasting blood samples had been collected.
(§3) Biomarkers: A meal tolerance test (MTT) was performed at baseline (Visit 2) and the final visit (Visit 5). In addition, blood was drawn at every visit for assessment of fasting glucose and insulin, HbA1c, C-peptide, fructosamine, FFA, triglycerides, total cholesterol, HDL, VLDL, LDL, and Apo-B levels.
(§4) Secondary Efficacy Variable (s) and Analyses. Since all secondary efficacy parameters were continuous, they were analyzed in the same manner as described above for the primary efficacy parameter, with treatment group and baseline values for the relevant parameter used as predictors. These secondary efficacy parameters included:
Total cholesterol, triglycerides, HDL, LDL, VLDL, Apo-B, and FFA levels;

[2] = streptozotocin-treated rats, obese Zucker rats, or normal rats given a glucose load; cited from earlier work
[3] = Same clinical trial: insulin during meal tolerance test (MTT); type: in vivo, human
Procedure: Changes in area-under-the-curve (AUC) and 120-minute insulin and glucose levels during the mcal tolerance test (MTT).
as §1, §2, §3, §4
AUC (and 120-minute) insulin and glucose levels during the MTT;

[4] = Randomized placebo-controlled clinical trial of D-chiro-inositol with sulfonylureas: glycemic markers (HbA1c, fructosamine, fasting glucose); type: in vivo, human; conditions: for Difference in HbA1c change between D-chiro-inositol and placebo: baseline to endpoint
Procedure: The objective of this study was to assess the efficacy and safety of D-chiro-inositol when administered as a single oral dose of 1200 mg/day compared to placebo, each in combination with sulfonylureas, for 3 months. Patients were required to have been on sulfonylureas for 3 months prior to study entry without reaching their target dose or with a suboptimal response.
as §1, §2
Patients receiving D-chiro-inositol received four 300 mg capsules once daily for a total daily dose of 1200 mg; placebo patients took 4 placebo capsules once daily. Doses were taken orally, generally in the mornings. Patients were instructed to take their dose in the morning at the same time each day, except on visit days. On visit days, dosing was to be done at the clinic. No instructions were given regarding when to take medication in relation to meals on non-visit days.
as §3
Primary Efficacy Variable(s) and Analyses. The primary analysis was based on the change from baseline to endpoint in HbA1c level using the modified ITT and evaluable study populations. The analysis was done using an analysis of covariance (ANCOVA) model with treatment group and the baseline HbA1c value as predictors.
Secondary Efficacy Variable (s) and Analyses. Since all secondary efficacy parameters were continuous, they were analyzed in the same manner as described above for the primary efficacy parameter, with treatment group and baseline values for the relevant parameter used as predictors.

[5] = oral or intravenous route; cited from earlier work
[6] = Subgroup analysis of the clinical trial: lipid lowering drug / D-chiro-inositol effects on LDL cholesterol; type: in vivo, human; conditions: type 2 diabetic patients on sulfonylurea, with or without lipid lowering medication
Procedure: Due to the observation of lipid lowering effects seen in the DCI group, the clinical trial described in EXAMPLE 1 was further analyzed for synergistic interactions between D-chiro-inositol and lipid lowering medications. Certain patients within the trial were treated according to standard of care with HMC-CoA inhibitors (LIPITOR®, LESCOL®, ZOCOR®, MEVACOR®, PRAVACHOL®), gemfibrozil, or a combination of HMC-CoA and gemfibrozil. No inclusion or exclusion criteria were established for the efficacy of the lipid lowering drug efficacy in the patient population. As stated supra, these patients were being sub optimally treated with a sulfonylurea prior to beginning the clinical trial. The patients could not change their lipid lowering dose and/or regimen during the length of the study.

[7] = evaluable patients with FPG ≦ 180 mg/dL
[8] = evaluable patients, 1200 mg/day plus sulfonylurea
[9] = MTT, evaluable patients with FPG ≦ 180 mg/dL
[10] = MTT, evaluable patients, 1200 mg/day plus sulfonylurea
[11] = patients with FPG ≦ 180 mg/dL, 1200 mg/day oral plus sulfonylurea

With `OC1C(O)C(O)C(O)C(O)C1O` [D-chiro-inositol] the “Apo-B, mean change” value [1, 7] was -4.00 mg/dL, the “Cholesterol, mean change” value [1, 7] was -5.31 mg/dL and the “LDL, mean change” value [1, 7] was -4.14 mg/dL. The “Decrease in LDL” value ([1]; evaluable patients with FPG>180 mg/dL, p=0.036 vs placebo) was 2.02 mg/dL, the “Apo-B, mean change at endpoint” value [1, 8] was -1.26 mg/dL and the “Cholesterol, mean change at endpoint” value [1, 8] was -2.74 mg/dL. For the same compound, the “FFA, mean change at endpoint” value [1, 8] was −0.07 mEq/L, the “LDL, mean change at endpoint” value [1, 8] was -2.95 mg/dL and the Glycemic control [2] was “significantly improved glyceimic control”. For the same compound, the “Change in insulin AUC from baseline to endpoint, median of individual subjects (FIG. 2)” value ([3]; DCI+SU group) was “slightly increased the insulin AUC”, the “120-min. insulin, mean change” value [3, 9] was 5.09 μU/mL and the “AUC insulin, mean change” value [3, 9] was 1070.8 μU/mL·hr. For the same compound, the “120-min. insulin, mean change at endpoint” value [3, 10] was 3.50 μU/mL, the “AUC insulin, mean change at endpoint” value [3, 10] was 484.4 μU/mL·hr and the “Insulin response to meal tolerance test over the treatment period (FIGS. 1A, 1B)” value ([3]; subjects with fasting blood glucose ≦180 mg/dl, DCI+SU, 13 weeks, listed as DCI) was “maintained this response after the 13 week course of treatment; also recorded: maintains a constant insulin response over the testing period”. The “Fasting glucose, mean change” value [4, 7] was 12.67 mg/dL, the “Fructosamine, mean change” value [4, 7] was -15.22 µmol/L and the “Decrease in mean HbA1c level from baseline to endpoint” value ([4]; evaluable patients with FPG≦180 mg/dL, stated as a decrease) was 0.53%. The “Mean change in HbA1c from baseline to endpoint, mean (SD)” value ([4]; evaluable patients, LOCF at endpoint (13 weeks), 1200 mg/day oral plus sulfonylurea) was −0.16 (1.03) %, the “Difference in HbA1c change between D-chiro-inositol and placebo” value ([4]; evaluable population) was 0.36% and the “Decrease in mean fructosamine levels” value ([4]; evaluable population, p=0.159 vs placebo) was 5.32 µmol/L. The “Decrease in mean HbA1c levels from baseline to endpoint” value ([4]; evaluable population, stated as a decrease) was 0.16%, the “Mean change in HbA1c from baseline to endpoint, mean (SD)” value ([4]; patients with FPG ≦ 180 mg/dL, LOCF at endpoint, 1200 mg/day oral plus sulfonylurea) was −0.53 (1.03) % and the “Mean change in HbA1c from baseline to Week 4, mean (SD)” value [4, 11] was −0.47 (0.68) %. The “Mean change in HbA1c from baseline to Week 8, mean (SD)” value [4, 11] was −0.57 (0.82) %, the “Difference in HbA1c change between D-chiro-inositol and placebo” value ([4]; patients with FPG≦180 mg/dL) was 0.80% and the “Disappearance rate of plasma glucose and insulin” value [5] was “significantly increased the disappearance rate of both plasma glucose and insulin”. The “Effect on LDL cholesterol (FIG. 3)” value [6] was “significantly reduced the increase of LDL cholesterol”.
